Experimental data published in patent publication US20190125753A1, “COMPOUNDS AND METHODS FOR INCREASING HEMATOPOIESIS” (University of Southern California, priority 2016, published 2019).

Legend:
R1 mESCs = assay: Maintenance of mouse ES cell pluripotency, feeder free, 5 days; type: cell-based
Experimental: We also determined that IQ-1 indirectly, via binding to the PR72/130 subunit of PP2A, inhibited the p300/β-catenin interaction (Id). Therefore, we anticipated that YH249/250 should also maintain mESC pluripotency in a Wnt dependent manner. To test his, R1 mESCs were cultured under feeder free conditions in the presence or absence of YH249/250 for 5 days. […] Pluripotency markers, Oct4, Nanog, Sox2, SSEA-1 and ALP, were all expressed in the cells treated with Wnt3a and YH250 (FIG. 28b). Moreover, Wnt3a could be replaced with the selective GSK-3 inhibitor CHIR99021, which activates the Wnt signaling pathway (FIG. 28a, lower panel). […] In the event, similarly to ID-8, the combination of Wnt3a and YH249/250 provided morphologically undifferentiated colonies of H9 human embryonic stem cells (hESCs) without FGF and TGF (FIG. 28c). hPSC markers were detected by ALP staining and immunofluorescence (FIG. 28d). In addition to H9 cells, two other hESC lines and a human induced pluripotent stem (iPS) cell line could be also maintained undifferentiated morphology utilizing the same conditions (not shown).
Specifically, FIG. 28A-28D, show maintenance of ESC's pluripotency by YH249 and YH250. […] 28A, Typical colony morphologies of RI mouse ES cells cultured 5 days in [upper panel] 3 μM CHIR99021 and 1 μM PD0325901 (2i) medium, basal medium (2i medium without CHIR99021 and PD0325901), basal medium supplemented with 50 ng/ml Wnt3a alone, [middle panel] combination of 50 ng/ml Wnt3a and 2 μM IQ-1, 500 nM YH249 or 200 nM YH250, [lower panel] 3 μM of CHIR99021 alone, and combination of 3 μM CHIR99021 and 500 nM YH249 or 200 nM YH250. […] The blue signal (Wnt3a panels) represents DAPI nuclear staining. Bars indicate […]. […] The blue signal (Wnt3a panels) represents DAP1 nuclear staining. Scale bars indicate 100 am.

cord blood cells = assay: Cord blood cell repopulation in NSG mice; type: in vivo, human; details: day 57 post BMT
Source text: FIG. 11A depicts the experimental procedure.

[1] = tested on: Axin2 and survivin (Birc5) gene expression; assay: qPCR gene expression in bone marrow Sca-1posit cells of treated mice; type: in vivo, mouse; details: 2 mg/kg overnight, Sca-1+ population
Experimental: Axin2 is a classical Wnt/catenin target genes and plays important regulatory roles in Wnt signaling. The inhibitor of apoptosis (IAP) family member survivin (Birc5) is another Wnt/catenin target gene. […] To study YH250 effects in bone marrow stem cell population gene expression, female C57/Black mice were treated with DMSO or YH250 (2 mg/kg) overnight and bone marrow Sca-1posit cells were isolated. Then, total RNA were extracted for cDNA synthesis and qPCR assay (FIG. 5A). As shown in FIGS. 5B-5C, both Axin2 and survivin gene expression were up regulated by YH250 in the Sca-1^+ population of the treated animals.

[2] = tested on: LTR-HSC (LSKCD34−CD135−CD150+ cells); assay: BrdU incorporation in bone marrow HSPC in vivo; design: species or system mouse; details: 24 or 48 hrs post administration
Source text: P300/-catenin antagonists stimulate HSPC proliferation both in vitro and in vivo. In this study, 24 or 48 hrs post either DMSO or YH250 administration, BrdU was given to animals and bone marrow cells were isolated and analyzed to determine HSPC proliferation (FIG. 15A). Bone marrow cells were stained with antibodies to lineage markers (CD3, CD4, CD8, B220, CD16, Gr-1, Mac-1), antibodies to Sca-1, c-kit, CD135, CD34, CD150 and BrdU.

[3] = tested on: long-term repopulating HSC; assay: HSC differentiation assay (LTR-HSC from treated mice co-cultured with GFP bone marrow cells); type: in vivo, mouse; details: 2 mg/kg, 24 hours, then 2.5-3 days co-culture
Experimental: DMSO or YH250 (2 mg/kg) were administrated to female C57/BL mice. (Mice were purchased from JAX stock#000664 for CD45.2 or Stock#002014 for CD45.1). 24 hours later, long-term repopulating HSC (LTR-HSC, Lin-negt/Sca-1-posit/c-kit-posit/CD34negt/CD135negt/CD48negt/CD150posit cells were purified with fluorescent flow cytometry sorting (FACS). Then, the purified cells were co-cultured with whole bone marrow cells isolated from GFP-transgenic mice (C57BL/6Tg-UBC-GFP, JAX stock#004353), which serves as supporting system in stem cell medium (Stemspan, Stemcell Technologies, Cat#9650) supplemented with SCF (stem cell factor 10 ng/ml) and TPO (thrombopoietin, 10 ng/ml). 2.5-3 days after co-culture, cells were harvested and analyzed for surface markers of CD48 and CD202b (Tie-2) (FIG. 7A).

7Gy irradiated animals = assay: Peripheral blood count and body weight recovery after 7Gy radiation; type: in vivo
Experimental: YH250 was then tested for stimulating blood count recovery in irradiated animals. In this experiment, animals received 7Gy whole body radiation and then, either YH250 or DMSO was administrated 24 hours post radiation. Animal body weight and peripheral blood counts were measured to monitor hematopoietic recovery (FIGS. 20A-20B). […] It is worth noting that it is a full lineage blood cell count recovery, including white blood cell (lymphocyte, monocyte and neutrophil), red blood cell and platelet (FIG. 20C). The neutrophil and platelet recovery is most significant.

[4] = administered 24 hours post radiation

## COc1cccc(CNC(=O)N2C3CN(Cc4cc(Cl)cc(Cl)c4N(C)C)C(=O)[C@H](Cc4ccc(O)cc4)N3C(=O)CN2C)c1OC (stereo partly drawn) [YH250]
R1 mESCs; Wnt3a and 200 nM YH250
  pluripotency markers Oct4, Nanog, Sox2, SSEA-1 and ALP: all expressed
R1 mESCs; with 50 ng/ml Wnt3a or 3 μM CHIR99021, 500 nM YH249 or 200 nM YH250, 5 days
  mESC pluripotency: maintain pluripotency
Cord blood cells; in vitro treated cells
  human CD34+ cells in bone marrow vs DMSO treated cells: more human CD34+ cells in bone marrow
Cord blood cells; pre-incubation in vitro 24 hours before BMT
  donor cell engraftment in blood: best engraftment in blood
[1]
  Axin2 gene expression: up regulated
  survivin gene expression: up regulated
[2]
  BrdU positive cells in LTR-HSC: more BrdU positive cells
[3]; p=0.010
  CD48posit cells vs DMSO: significantly less
[3]; p=0.04
  non-differentiated CD48negt/CD202bposit cells vs DMSO: significantly more
7Gy irradiated animals
  blood cell count at nadir points vs DMSO: significantly higher
7Gy irradiated animals; [4]
  blood count recovery (full lineage): Accelerated blood count recovery
  body weight: very little weight drop
